From article PMC5510889 (Metallomics : integrated biometal science, 2017)

Columns and labels:
IsdG [1] = target: T1, IsdG (Staphylococcus aureus, UniProt Q7A649); settings: cited from earlier work
IsdI [2] = target: T2, IsdI (Staphylococcus aureus, UniProt Q7A827); assay: UV/Vis absorption-detected heme titration; format: binding
IsdG [3] = target: T1, IsdG; settings: UV/Vis titration fitted to Michaelis-Menten model; cited from earlier work
IsdG [4] = target: T1, IsdG; assay: Fluorescence-detected heme titration; format: binding
IsdI [5] = target: T2, IsdI; settings: UV/Vis titration fitted to Michaelis-Menten model; cited from earlier work
IsdI [6] = target: T2, IsdI; assay: Fluorescence-detected heme titration; format: binding
myoglobin = settings: cited from earlier work
IsdG [7] = target: T1, IsdG; assay: Apomyoglobin competition assay; format: binding; settings: ratio of koff values, IsdG–heme vs IsdI–heme
IsdG [8] = target: T1, IsdG; assay: UV/Vis absorption-detected heme titration; format: binding

T2 sequence (Q7A827 whole entry): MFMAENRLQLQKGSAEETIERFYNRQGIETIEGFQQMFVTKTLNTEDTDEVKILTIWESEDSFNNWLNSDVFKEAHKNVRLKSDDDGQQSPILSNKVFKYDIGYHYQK
T1 sequence (Q7A649 whole entry): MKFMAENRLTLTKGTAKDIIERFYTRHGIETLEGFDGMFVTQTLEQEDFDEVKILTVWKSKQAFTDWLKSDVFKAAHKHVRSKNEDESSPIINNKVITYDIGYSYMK

SMILES	mode of inhibition of IsdG (IsdG [1])	Kd (IsdI [2]) [µM]	Kd for heme, IsdG, as reported in the literature (IsdG [3])	Kd (IsdG [4]) [µM]	heme binding to IsdG tighter than heme binding to IsdI (IsdG [4]; ratio of fluorescence Kd values, IsdG vs IsdI)	Kd for heme, IsdI, as reported in the literature (IsdI [5])	Kd (IsdI [6]) [µM]	Kd for heme dissociation from myoglobin (myoglobin)	rate of heme dissociation from IsdG–heme slower than from IsdI–heme (IsdG [7])	Kd (IsdG [8]) [µM]
[N-]=[N+]=[N-] [azide]	uncompetitive inhibitors	–	–	–	–	–	–	–	–	–
C=CC1=C(C)c2cc3[n-]c(cc4nc(cc5[n-]c(cc1n2)c(C)c5CCC(=O)O)C(CCC(=O)O)=C4C)c(C)c3C=C.[Fe+3] [heme]	–	0.015 ± 0.01	micromolar	0.0014 ± 0.0006	nine-fold	micromolar	0.0129 ± 0.0013	femtomolar	four-fold	0.034 ± 0.02
